In one data set the test system is APP mRNA. Briefly: qRT-PCR of APP mRNA under ASO treatment. Format: cell-based, human. The text has this: (§1) FIG. 7A. Schematic diagram of the designing of anti-circAβ-a-ASO. FIG. 7B. β-amyloid circular ribonucleic acid qRT-PCR results under ASO treatment; BE-Aβ represents the plasmid overexpressing circAβ-a using pCircRNA-BE vector; DMo-Aβ represents the overexpression using pCircRNA-DMo vector circAβ-a plasmid; Scr. ASO means negative control experiment ASO. FIG. 7C. qRT-PCR results of APP mRNA under ASO treatment.
(§2) In this example, the specific antisense oligonucleotide (ASO) against β-amyloid cyclic ribonucleic acid (circAβ) is used to inhibit and degrade circAβ to prevent and treat Alzheimer's disease. As shown in FIGS. 7A-7C, the level of the circular RNA in the cell is reduced by antisense oligonucleotides (anti-circAβ-a-ASO) against β-amyloid cyclic ribonucleic acid-a (circAβ-a). The APP mRNA was not affected (FIG. 7C). As shown in the figure, antisense oligonucleotides containing SEQ ID No. 41-57 anti-amyloid cyclic ribonucleic acid (circAβ). Antisense oligonucleotides recognize β-amyloid circular ribonucleic acid through base complementary pairing. Antisense oligonucleotides that bind target RNA can degrade target RNA by activating RNase H enzyme activity (FIGS. 7A-7C). Antisense oligonucleotides can also regulate (such as inhibit) protein translation by binding to target RNA.

A further data set concerns circAβ-a. The data set is described as follows: qRT-PCR of circAβ-a under ASO treatment. Format: cell-based, human. The note with it: cells overexpressing circAβ-a, vs Scr. ASO.
Description: as §1, §2

In the case of “AAGCAGCTCATCTCCACCACAC (listed as DNA, chemistry not given here) [anti-circAβ-a-ASO, antisense oligonucleotide against circAβ-a]”, the “APP mRNA level” value in the data set with APP mRNA is listed as “not affected”. In addition, the “level of circAβ-a in cells” value in the data set on circAβ-a was “reduced”.
